Values of other authors in patent US20240408053A1, “ENTERITIS-SUPPRESSING COMPOSITION” (KOBE GAKUIN EDUCATIONAL FOUNDATION, priority 2021, published 2024).

Conditions: blood metabolites after oral sesaminol in rats, for a short time (NPL 11); cited from earlier work

Row | Substance | antioxidant activity relative to that of sesaminol
1 | sesaminol-6-catechol | approximately 1.6 times
2 | 5″-methylated sesamin-6-catechol | approximately 1.6 times
